Laboratory results published in ChEMBL document CHEMBL1287680, “C-11 diamino cryptolepine derivatives NSC748392, NSC748393, and NSC748394: anticancer profile and G-quadruplex stabilization” (Bioorg Med Chem Lett, 2010).

Assays:
[1] = tested on: Nucleic Acid; conditions: Homo sapiens
Description: Binding affinity to human G-quadruplex DNA assessed as change in melting temperature by FRET-melting assay

[2] = tested on: SK-OV-3; assay: cells; conditions: Homo sapiens
Description: Anticancer activity against human SKOV3 cells

[3] = tested on: OVCAR-8; assay: cells; conditions: Homo sapiens, OVCAR-8, read-out: pGI50 (converted)
Description: Anticancer activity against human OVCAR8 cells

[4] = tested on: OVCAR-5; assay: cells; conditions: Homo sapiens
Description: Anticancer activity against human OVCAR5 cells

[5] = tested on: UACC-257; assay: cells; conditions: Homo sapiens
Description: Anticancer activity against human UACC257 cells

[6] = tested on: M14; assay: cells; conditions: Homo sapiens
Description: Anticancer activity against human M14 cells

[7] = tested on: Malme-3M; assay: cells; conditions: Homo sapiens
Description: Anticancer activity against human MALME-3M cells

[8] = tested on: SNB-19; assay: cells; conditions: Homo sapiens
Description: Anticancer activity against human SNB19 cells

[9] = tested on: SF-539; assay: cells; conditions: Homo sapiens
Description: Anticancer activity against human SF539 cells

[10] = tested on: SF-295; assay: cells; conditions: Homo sapiens
Description: Anticancer activity against human SF295 cells

[11] = tested on: SF-268; assay: cells; conditions: Homo sapiens
Description: Anticancer activity against human SF268 cells

[12] = tested on: KM12; assay: cells; conditions: Homo sapiens
Description: Anticancer activity against human KM12 cells

[13] = tested on: HCT-15; assay: cells; conditions: Homo sapiens
Description: Anticancer activity against human HCT15 cells

[14] = tested on: NCI-H322M; assay: cells; conditions: Homo sapiens
Description: Anticancer activity against human NCI-H322M cells

[15] = tested on: NCI-H23; assay: cells; conditions: Homo sapiens
Description: Anticancer activity against human NCI-H23 cells

[16] = tested on: NCI-H226; assay: cells; conditions: Homo sapiens
Description: Anticancer activity against human NCI-H226 cells

[17] = tested on: HOP-92; assay: cells; conditions: Homo sapiens
Description: Anticancer activity against human HOP92 cells

[18] = tested on: EKVX; assay: cells; conditions: Homo sapiens
Description: Anticancer activity against human EKVX cells

[19] = tested on: A549; assay: cells; conditions: Homo sapiens
Description: Anticancer activity against human A549 cells

[20] = tested on: SR; assay: cells; conditions: Homo sapiens
Description: Anticancer activity against human SR cells

[21] = cells; conditions: Homo sapiens
Description: Anticancer activity against human RPMI8266 cells

[22] = tested on: Vero; assay: cells; conditions: Chlorocebus sabaeus, 48 h
Description: Cytotoxicity against african green monkey Vero cells after 48 hrs by MTT assay

[23] = tested on: T47D; assay: cells; conditions: Homo sapiens
Description: Anticancer activity against human T47D cells

[24] = tested on: MDA-MB-468; assay: cells; conditions: Homo sapiens
Description: Anticancer activity against human MDA-MB-468 cells

[25] = tested on: MDA-MB-435; assay: cells; conditions: Homo sapiens
Description: Anticancer activity against human MDA-MB-435 cells

[26] = cells; conditions: Homo sapiens, Hs-578T
Description: Anticancer activity against human Hs 578T cells

[27] = tested on: NCI/ADR-RES; assay: cells; conditions: Homo sapiens
Description: Anticancer activity against human NCI/ADR-RES cells

[28] = tested on: PC-3; assay: cells; conditions: Homo sapiens
Description: Anticancer activity against human PC3 cells

[29] = tested on: UO-31; assay: cells; conditions: Homo sapiens
Description: Anticancer activity against human UO31 cells

[30] = tested on: TK-10; assay: cells; conditions: Homo sapiens
Description: Anticancer activity against human TK10 cells

[31] = tested on: RXF 393; assay: cells; conditions: Homo sapiens
Description: Anticancer activity against human RXF393 cells

[32] = tested on: CAKI-1; assay: cells; conditions: Homo sapiens
Description: Anticancer activity against human Caki1 cells

[33] = tested on: ACHN; assay: cells; conditions: Homo sapiens
Description: Anticancer activity against human ACHN cells

[34] = in vivo; conditions: mouse, cancer cell lines
Description: Toxicity in cancer cells containing hollow fiber implanted mouse

C[n+]1c2ccccc2c(Nc2ccc(N3CCCCC3)cc2)c2[nH]c3ccccc3c21.[Cl-]
ΔTm [1]: 4.2 °C
GI50 ([2]; SK-OV-3, read-out: pGI50 (converted)): 513 nM
CC50 ([2]; SK-OV-3, read-out: pLC50 (converted)): 4270 nM
TGI ([2]; SK-OV-3, read-out: pTGI): 1860 nM
GI50 [3]: 316 nM
GI50 ([4]; OVCAR-5, read-out: pGI50 (converted)): 1070 nM
CC50 ([4]; OVCAR-5, read-out: pLC50 (converted)): 5500 nM
TGI ([4]; OVCAR-5, read-out: pTGI): 2400 nM
GI50 ([5]; UACC-257, read-out: pGI50 (converted)): 1230 nM
TGI ([5]; UACC-257, read-out: pTGI): 2690 nM
GI50 ([6]; M14, read-out: pGI50 (converted)): 389 nM
CC50 ([6]; M14, read-out: pLC50 (converted)): 4070 nM
TGI ([6]; M14, read-out: pTGI): 1450 nM
GI50 ([7]; read-out: pGI50 (converted)): 417 nM
CC50 ([7]; read-out: pLC50 (converted)): 4570 nM
TGI ([7]; read-out: pTGI): 1700 nM
GI50 ([8]; SNB-19, read-out: pGI50 (converted)): 427 nM
CC50 ([8]; SNB-19, read-out: pLC50 (converted)): 4370 nM
TGI ([8]; SNB-19, read-out: pTGI): 1780 nM
GI50 ([9]; SF-539, read-out: pGI50 (converted)): 646 nM
CC50 ([9]; SF-539, read-out: pLC50 (converted)): 4470 nM
TGI ([9]; SF-539, read-out: pTGI): 1950 nM
GI50 ([10]; SF-295, read-out: pGI50 (converted)): 398 nM
CC50 ([10]; SF-295, read-out: pLC50 (converted)): 4370 nM
TGI ([10]; SF-295, read-out: pTGI): 1580 nM
GI50 ([11]; SF-268, read-out: pGI50 (converted)): 676 nM
CC50 ([11]; SF-268, read-out: pLC50 (converted)): 6030 nM
TGI ([11]; SF-268, read-out: pTGI): 2190 nM
GI50 ([12]; KM12, read-out: pGI50 (converted)): 372 nM
CC50 ([12]; KM12, read-out: pLC50 (converted)): 5130 nM
TGI ([12]; KM12, read-out: pTGI): 1480 nM
GI50 ([13]; HCT-15, read-out: pGI50 (converted)): 170 nM
CC50 ([13]; HCT-15, read-out: pLC50 (converted)): 912 nM
TGI ([13]; HCT-15, read-out: pTGI): 398 nM
GI50 ([14]; read-out: pGI50 (converted)): 1020 nM
CC50 ([14]; read-out: pLC50 (converted)): 5500 nM
TGI ([14]; read-out: pTGI): 2400 nM
GI50 ([15]; NCI-H23, read-out: pGI50 (converted)): 398 nM
CC50 ([15]; NCI-H23, read-out: pLC50 (converted)): 6610 nM
TGI ([15]; NCI-H23, read-out: pTGI): 1700 nM
GI50 ([16]; NCI-H226, read-out: pGI50 (converted)): 269 nM
TGI ([16]; NCI-H226, read-out: pTGI): 1860 nM
GI50 ([17]; HOP-92, read-out: pGI50 (converted)): 263 nM
CC50 ([17]; HOP-92, read-out: pLC50 (converted)): 5130 nM
TGI ([17]; HOP-92, read-out: pTGI): 1200 nM
GI50 ([18]; read-out: pGI50 (converted)): 427 nM
CC50 ([18]; read-out: pLC50 (converted)): 4680 nM
TGI ([18]; read-out: pTGI): 1860 nM
GI50 ([19]; A549, read-out: pGI50 (converted)): 162 nM
CC50 ([19]; A549, read-out: pLC50 (converted)): > 100000 nM
TGI ([19]; A549, read-out: pTGI): 589 nM
GI50 ([20]; read-out: pGI50 (converted)): 3800 nM
CC50 ([20]; read-out: pLC50 (converted)): > 100000 nM
TGI ([20]; read-out: pTGI): > 100000 nM
GI50 ([21]; RPMI8266, read-out: pGI50 (converted)): 158 nM
CC50 ([21]; RPMI8266, read-out: pLC50 (converted)): 1000 nM
TGI ([21]; RPMI8266, read-out: pTGI): 398 nM
IC50 [22]: 4830 nM
GI50 ([23]; read-out: pGI50 (converted)): 214 nM
TGI ([23]; read-out: pTGI): 603 nM
GI50 ([24]; MDA-MB-468, read-out: pGI50 (converted)): 135 nM
CC50 ([24]; MDA-MB-468, read-out: pLC50 (converted)): 891 nM
TGI ([24]; MDA-MB-468, read-out: pTGI): 347 nM
GI50 ([25]; MDA-MB-435, read-out: pGI50 (converted)): 447 nM
CC50 ([25]; MDA-MB-435, read-out: pLC50 (converted)): 4900 nM
TGI ([25]; MDA-MB-435, read-out: pTGI): 1660 nM
GI50 ([26]; read-out: pGI50 (converted)): 275 nM
TGI ([26]; read-out: pTGI): 1000 nM
GI50 ([27]; read-out: pGI50 (converted)): 617 nM
TGI ([27]; read-out: pTGI): 2450 nM
GI50 ([28]; PC-3, read-out: pGI50 (converted)): 195 nM
CC50 ([28]; PC-3, read-out: pLC50 (converted)): 3240 nM
TGI ([28]; PC-3, read-out: pTGI): 631 nM
GI50 ([29]; UO-31, read-out: pGI50 (converted)): 145 nM
CC50 ([29]; UO-31, read-out: pLC50 (converted)): 3020 nM
TGI ([29]; UO-31, read-out: pTGI): 832 nM
GI50 ([30]; TK-10, read-out: pGI50 (converted)): 1000 nM
CC50 ([30]; TK-10, read-out: pLC50 (converted)): 5620 nM
TGI ([30]; TK-10, read-out: pTGI): 2400 nM
GI50 ([31]; RXF 393, read-out: pGI50 (converted)): 174 nM
CC50 ([31]; RXF 393, read-out: pLC50 (converted)): 692 nM
TGI ([31]; RXF 393, read-out: pTGI): 347 nM
GI50 ([32]; CAKI-1, read-out: pGI50 (converted)): 234 nM
CC50 ([32]; CAKI-1, read-out: pLC50 (converted)): 3160 nM
TGI ([32]; CAKI-1, read-out: pTGI): 794 nM
GI50 ([33]; read-out: pGI50 (converted)): 288 nM
CC50 ([33]; read-out: pLC50 (converted)): 3890 nM
TGI ([33]; read-out: pTGI): 1450 nM
MTD [34]: 160 mg/kg
